Laboratory results as given in patent US4065575A, “3-Aminomethyl derivatives of 4-chromanone” (Joullie International, priority 1975, dated 1977).
“Also recorded” adds a separate entry of the source. Where a name gives a salt, the structure may show the parent alone.

What was measured:
[1] = Acute toxicity in mice (LD 50); assay type: in vivo; conditions: mouse, in vivo, mice, 15 days observation
Method: (§1) The study is carried out on batches of 5 Swiss female mice of the NMRI Han. strain. The products are administered either intravenously (into the caudal vein) in solution in a 9 g..permill. sodium chloride solution, or orally (probang) in suspension in a 10% solution of gum arabic.
(§2) The animals are observed for the 15 days following the administration of the products.
(§3) The LD 50 values are calculated by the method of Karber and Behrens (Arch. Exp. Pathol. Pharm. 177, 1935, page 379).

mice = test: Acute toxicity in mice (LD 50); assay type: in vivo; conditions: intravenous; in words
Method: as §1, §2, §3

[2] = system: isolated auricle of a rabbit; test: Peripheral vasomotoricity, isolated and perfused auricle of a rabbit
Method: The flow rate of the liquid issuing from the veins is recorded by electronic contact on a polygraph. The products to be studied are injected at increasing doses into the perfusion tube and their actions are compared to that of isoxsuprine used as the reference substance.
The results, collected in Table No. III, are expressed in the maximum percentage increase of the flow rate at the various doses used.

[3] = system: hypertensive effects of electrical stimulation, adrenaline and noradrenaline; test: α-Sympatholytic effects in amyeliated rats; assay type: in vivo; conditions: for % variation of the hypertensive effects obtained with adrenaline: adrenaline 1.25 to 2.5 μg./kg.; for % variation of the hypertensive effects obtained with noradrenaline: noradrenaline 1.25 to 2.5 μg./kg.
Source text: The α-sympatholytic effects of LJ 1052 and LJ 1053 are compared with those of isoxsuprine in amyeliated rats which have been prepared by a method derived from those of Shipley and Tilden (Proc. soc. Exp. Biol. Med. 1947, 64, 453-455) and of Gillespie and Muir (Br. J. Pharmac. Chemother. 1967, 30, 78-87).
The effects on the blood pressure of electrical stimulation of the thoracolumbar sympathic nerve (rectangular signals = voltage 20 to 40 volts; width 2 m. sec; frequency 10 secs.; duration 5 to 10 secs.) and of injections of adrenaline (1.25 to 2.5 μg./kg.) and of noradrenaline (1.25 to 2.5 μg./kg.) are determined before and after injection of the products tested.

[4] = Cardiovascular action in dogs; assay type: in vivo, male Beagle dogs
Method: Male Beagle dogs weighing 9 to 12 kg. were anaesthetised by intrasaphenous injection of a 2% solution of chloralose in physiological solution, at a dose of 100 mg./kg.
The anaesthesia is maintained by slow perfusion of 5% pentobarbital (1.2 ml./hour).
The animals are tracheotomised and placed under assisted respiration by means of a Bird respirator. Their oxygenation and their acid-base equilibrium are controlled by determination of the pH, the pCO2 and the pO2 on blood samples taken from a collateral of the brachial artery (pH/gas analyser for blood, IL model 213/227).
The different parameters are recorded on a polygraph.

platelet aggregation = test: Anti-platelet-aggregation in vitro; assay type: cell-based; conditions: in words
ADP platelet aggregation = test: ADP aggregation test; assay type: cell-based; conditions: in words
[5] = dose 50 g./kg. (so in the source)
[6] = dose 100 g./kg. (so in the source)
[7] = dose 500 g./kg. (so in the source)
[8] = dose 2,500 g./kg. (so in the source)
[9] = 0.04 mg./kg. i.v. (1/1,000 LD 50)
[10] = 0.04 mg./kg. i.v. (1/1,000 LD 50), first or only phase

COCCNCC1COc2ccccc2C1=O (stereo not drawn) [LJ 1052, 3-(2-Methoxyethylaminomethyl)-4-chromanone hydrochloride]
LD50 at 360 h ([1]; intravenous administration): 47 mg/kg | LD50 at 360 h ([1]; oral administration): 475 mg/kg | intravenous LD 50 in mice (comparison of three products) (mice): practically identical | activation at 0.0001 mg ([2]; Oryctolagus cuniculus, dose 0.1 μg., read-out: Maximum variations in the flow rate): 79% | activation at 0.001 mg ([2]; Oryctolagus cuniculus, dose 1 μg., read-out: Maximum variations in the flow rate): 77% | activation at 0.01 mg ([2]; Oryctolagus cuniculus, dose 10 μg., read-out: Maximum variations in the flow rate): 100% | activation at 0.1 mg ([2]; Oryctolagus cuniculus, dose 100 μg., read-out: Maximum variations in the flow rate): 150% | duration of the effects / of the action ([2]; at the highest doses): ≥ 30 min | peripheral vasodilatory action ([2]; in words, hydrochloride): great; also recorded: as active as isoxsuprine; also recorded: great even at very low doses | % variation of the hypertensive effects obtained with electrical stimulation [3, 5]: 0% | % variation of the hypertensive effects obtained with adrenaline [3, 5]: -15% | % variation of the hypertensive effects obtained with noradrenaline [3, 5]: -11% | % variation of the hypertensive effects obtained with electrical stimulation [3, 6]: 0% | % variation of the hypertensive effects obtained with adrenaline [3, 6]: -28% | % variation of the hypertensive effects obtained with noradrenaline [3, 6]: -12% | % variation of the hypertensive effects obtained with electrical stimulation [3, 7]: -20% | % variation of the hypertensive effects obtained with adrenaline [3, 7]: -77% | % variation of the hypertensive effects obtained with noradrenaline [3, 7]: -38% | % variation of the hypertensive effects obtained with electrical stimulation [3, 8]: -80% | % variation of the hypertensive effects obtained with adrenaline [3, 8]: -77% | % variation of the hypertensive effects obtained with noradrenaline [3, 8]: -50% | α-sympatholytic effect, comparison ([3]; same doses, in words): less α-sympatholytic than LJ 1053 and isoxsuprine | Diastolic AP, duration of action [4, 9]: 2 min | Diastolic AP, maximum per cent variation [4, 9]: -29% | FF, duration of action [4, 9]: 30 min | Hb (heart beat), maximum per cent variation [4, 9]: +14% | Hb, duration of action [4, 9]: 25 min | LVP, duration of action [4, 9]: 25 min | Mean AP, duration of action [4, 9]: 2 min | Mean AP, maximum per cent variation [4, 9]: -25% | Systolic AP, duration of action [4, 9]: 30 min | Systolic AP, maximum per cent variation [4, 9]: +13% | LVP (left ventricular pressure), maximum per cent variation [4, 10]: +9% | dLVP/dt, maximum per cent variation [4, 10]: +34% | dLVP/dt, duration of action ([4]; 0.04 mg./kg. i.v. (1/1,000 LD 50), only phase): 30 min | cardiovascular action compared with isoxsuprine ([4]; in words): comparable to or even greater than that of isoxsuprine | femoral flow rate ([4]; low doses, in words): activity comparable to that of isoxsuprine | anti-platelet-aggregation properties (platelet aggregation): marked anti-platelet-aggregation properties in vitro | anti-aggregation activity compared with adenosine (ADP platelet aggregation): almost as active as adenosine
